Results on ten molecules are retold here after PubChem BioAssay AID342 (DTP/NCI, 2004).

The subject of this assay is Swiss mice, Sarcoma 180 sc, mean tumor weight T/C. Description: NCI In Vivo Anticancer Drug Screen. Data for tumor model Sarcoma 180 (subcutaneous) in Swiss mice. The conditions noted are these: endpoint: mean tumor weight, higher = larger tumour. The method in brief:
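Readout is the ratio of treated-group measurement to vehicle-control measurement (T/C), based on survival or tumor size in mice carrying transplanted tumors.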

Values joined by “and” are separate entries in the source; they are usually repeats but may differ in a detail not shown here. Identical values can stand only once.

What is called T/C is the result in the treated group divided by that in the control group, in per cent. For `N=[N+]=CC(=O)OCC(N)C(=O)O` (centres undefined), the T/C is, setting by setting: (dose: 0.25 mg/kg/injection, schedule: Q#A X014 (ip), vehicle: carboxymethylcellulose (CMC)) 61 % of control; (dose: 0.5 mg/kg/injection, schedule: Q#A X014 (ip), vehicle: carboxymethylcellulose (CMC)) 35 % of control; (dose: 0.57 mg/kg/injection, schedule: Q#A X014 (ip), vehicle: carboxymethylcellulose (CMC)) 65 % of control; (dose: 0.92 mg/kg/injection, schedule: Q01DX007 (ip), vehicle: carboxymethylcellulose (CMC)) 33 % of control; (dose: 1.0 mg/kg/injection, schedule: Q#A X014 (ip), vehicle: carboxymethylcellulose (CMC)) 25 % of control; (dose: 1.15 mg/kg/injection, schedule: Q01DX007 (ip), vehicle: carboxymethylcellulose (CMC)) 39 % of control. The T/C reads like this: (dose: 1.15 mg/kg/injection, schedule: Q#A X014 (ip), vehicle: carboxymethylcellulose (CMC)) 7 % of control; (dose: 1.53 mg/kg/injection, schedule: Q01DX007 (ip), vehicle: carboxymethylcellulose (CMC)) 30 % of control; (dose: 2.1 mg/kg/injection, schedule: Q01DX007 (ip), vehicle: carboxymethylcellulose (CMC)) 11 % of control and 12 % of control; (dose: 2.3 mg/kg/injection, schedule: Q01DX007 (ip), vehicle: carboxymethylcellulose (CMC)) 14 % of control; (dose: 2.3 mg/kg/injection, schedule: Q#A X014 (ip), vehicle: carboxymethylcellulose (CMC)) 3 % of control; (dose: 4.2 mg/kg/injection, schedule: Q01DX007 (ip), vehicle: carboxymethylcellulose (CMC)) 3 % of control and 7 % of control. Also, the T/C is 4 % of control (dose: 4.6 mg/kg/injection, schedule: Q#A X014 (ip), vehicle: carboxymethylcellulose (CMC)); 2 % of control and 5 % of control (dose: 6.3 mg/kg/injection, schedule: Q01DX007 (ip), vehicle: carboxymethylcellulose (CMC)).

In the case of `O=c1[nH]c(=S)c2[nH]c(=O)[nH]c2[nH]1`, the T/C runs as follows: (dose: 50.0 mg/kg/injection, schedule: Q#A X014 (ip), vehicle: methylcellulose (MC)) 94 % of control; (dose: 100.0 mg/kg/injection, schedule: Q#A X014 (ip), vehicle: methylcellulose (MC)) 73 % of control; (dose: 200.0 mg/kg/injection, schedule: Q#A X014 (ip), vehicle: methylcellulose (MC)) 101 % of control.

As to `COc1cc(C(=O)CC2CCCCN2)ccc1O` (centres undefined), the T/C runs as follows: (dose: 55.0 mg/kg/injection, schedule: Q01DX007 (ip), vehicle: saline) 62 % of control; (dose: 83.0 mg/kg/injection, schedule: Q01DX007 (ip), vehicle: saline) 120 % of control; (dose: 125.0 mg/kg/injection, schedule: Q01DX007 (ip), vehicle: saline) 95 % of control and 96 % of control; (dose: 250.0 mg/kg/injection, schedule: Q01DX007 (ip), vehicle: saline) 83 % of control.

In the case of `CCOC(=O)C(N)Cc1ccc(N(CCCl)CCCl)cc1` (centres undefined), the T/C was 41 % of control (dose: 1.4 mg/kg/injection, schedule: Q01DX007 (ip), vehicle: saline); 93 % of control (dose: 2.7 mg/kg/injection, schedule: Q01DX007 (ip), vehicle: saline); 9 % of control (dose: 4.1 mg/kg/injection, schedule: Q01DX007 (ip), vehicle: saline); 90 % of control (dose: 5.0 mg/kg/injection, schedule: Q01DX007 (ip), vehicle: carboxymethylcellulose (CMC)); 32 % of control and 49 % of control (dose: 5.5 mg/kg/injection, schedule: Q01DX007 (ip), vehicle: saline); 83 % of control (dose: 8.0 mg/kg/injection, schedule: Q01DX007 (ip), vehicle: carboxymethylcellulose (CMC)). Moreover, the T/C runs as follows: (dose: 8.3 mg/kg/injection, schedule: Q01DX007 (ip), vehicle: saline) 15 % of control and 20 % of control; (dose: 12.0 mg/kg/injection, schedule: Q01DX007 (ip), vehicle: carboxymethylcellulose (CMC)) 59 % of control; (dose: 12.5 mg/kg/injection, schedule: Q01DX007 (ip), vehicle: saline) 7 % of control; (dose: 18.0 mg/kg/injection, schedule: Q01DX007 (ip), vehicle: carboxymethylcellulose (CMC)) 29 % of control and 42 % of control; (dose: 27.0 mg/kg/injection, schedule: Q01DX007 (ip), vehicle: carboxymethylcellulose (CMC)) 15 % of control.

In the case of `O=[n+]1c2c(n([O-])c3ccccc31)-c1cccc3cccc-2c13`, the T/C (dose: 41.0 mg/kg/injection, schedule: Q01DX007 (ip), vehicle: carboxymethylcellulose (CMC)) was 69 % of control; the T/C (dose: 210.0 mg/kg/injection, schedule: Q01DX007 (ip), vehicle: carboxymethylcellulose (CMC)) was 10 % of control; the T/C (dose: 315.0 mg/kg/injection, schedule: Q01DX007 (ip), vehicle: carboxymethylcellulose (CMC)) is 25 % of control.

For `C/C=C1\CN(C)[C@H]2Cc3c([nH]c4ccccc34)[C@@H](c3cc4[nH]c5c(c4cc3OC)CCN3C[C@H]4C[C@H](CC)[C@H]3[C@@]5(C(=O)OC)C4)C[C@H]1C2C(=O)OC` (some centres undefined), the T/C (dose: 35.0 mg/kg/injection, schedule: Q01DX007 (ip), vehicle: water) is 58 % of control; the T/C (dose: 50.0 mg/kg/injection, schedule: Q01DX007 (ip), vehicle: water) was 74 % of control and 90 % of control; the T/C (dose: 70.0 mg/kg/injection, schedule: Q01DX007 (ip), vehicle: water) was 38 % of control and 59 % of control; the T/C (dose: 90.0 mg/kg/injection, schedule: Q01DX007 (ip), vehicle: water) is 30 % of control.

Turning to `O=C1C=CC(=O)N1c1ccc2c(c1)C(Br)c1ccccc1-2` (centres undefined), the T/C runs as follows: (dose: 3.0 mg/kg/injection, schedule: Q#A X014 (ip), vehicle: carboxymethylcellulose (CMC)) 97 % of control; (dose: 5.5 mg/kg/injection, schedule: Q#A X014 (ip), vehicle: carboxymethylcellulose (CMC)) 73 % of control; (dose: 11.0 mg/kg/injection, schedule: Q#A X014 (ip), vehicle: carboxymethylcellulose (CMC)) 109 % of control; (dose: 11.0 mg/kg/injection, schedule: Q#A X014 (ip), vehicle: methylcellulose (MC)) 45 % of control and 52 % of control; (dose: 16.5 mg/kg/injection, schedule: Q#A X014 (ip), vehicle: carboxymethylcellulose (CMC)) 102 % of control; (dose: 16.5 mg/kg/injection, schedule: Q#A X014 (ip), vehicle: methylcellulose (MC)) 32 % of control and 50 % of control. Also, the T/C reads like this: (dose: 25.0 mg/kg/injection, schedule: Q#A X014 (ip), vehicle: carboxymethylcellulose (CMC)) 99 % of control; (dose: 25.0 mg/kg/injection, schedule: Q#A X014 (ip), vehicle: methylcellulose (MC)) 40 % of control; (dose: 37.5 mg/kg/injection, schedule: Q#A X014 (ip), vehicle: carboxymethylcellulose (CMC)) 89 % of control.

Consider `NC(=O)Oc1ccccc1`, for which the T/C by setting is: (dose: 220.0 mg/kg/injection, schedule: Q01DX007 (ip), vehicle: other) 69 % of control; (dose: 330.0 mg/kg/injection, schedule: Q01DX007 (ip), vehicle: other) 84 % of control; (dose: 492.0 mg/kg/injection, schedule: Q01DX007 (ip), vehicle: other) 65 % of control.

For `C[C@]12C=CC(=O)C=C1CC[C@@H]1[C@@H]2[C@@H](O)C[C@@]2(C)[C@H]1CC[C@]2(O)C(=O)CF`, the T/C (dose: 6.0 mg/kg/injection, schedule: Q01DX007 (sc), vehicle: steriod suspending solution) was 77 % of control; the T/C (dose: 9.0 mg/kg/injection, schedule: Q01DX007 (sc), vehicle: steriod suspending solution) was 91 % of control; the T/C (dose: 13.3 mg/kg/injection, schedule: Q01DX007 (sc), vehicle: steriod suspending solution) is 82 % of control; the T/C (dose: 20.0 mg/kg/injection, schedule: Q01DX007 (sc), vehicle: steriod suspending solution) is 35 % of control and 49 % of control and 54 % of control; the T/C (dose: 45.0 mg/kg/injection, schedule: Q01DX007 (sc), vehicle: steriod suspending solution) was 32 % of control; the T/C (dose: 70.0 mg/kg/injection, schedule: Q01DX007 (sc), vehicle: steriod suspending solution) was 27 % of control and 32 % of control and 36 % of control. For the same molecule, the T/C runs as follows: (dose: 107.0 mg/kg/injection, schedule: Q01DX007 (sc), vehicle: steriod suspending solution) 32 % of control; (dose: 158.0 mg/kg/injection, schedule: Q01DX007 (sc), vehicle: steriod suspending solution) 36 % of control; (dose: 160.0 mg/kg/injection, schedule: Q01DX007 (sc), vehicle: steriod suspending solution) 24 % of control; (dose: 352.0 mg/kg/injection, schedule: Q01DX007 (sc), vehicle: steriod suspending solution) 52 % of control; (dose: 358.0 mg/kg/injection, schedule: Q01DX007 (sc), vehicle: steriod suspending solution) 33 % of control; (dose: 360.0 mg/kg/injection, schedule: Q01DX007 (sc), vehicle: steriod suspending solution) 33 % of control. For the same molecule, the T/C was 39 % of control and 56 % of control (dose: 537.0 mg/kg/injection, schedule: Q01DX007 (sc), vehicle: steriod suspending solution); 20 % of control and 22 % of control (dose: 540.0 mg/kg/injection, schedule: Q01DX007 (sc), vehicle: steriod suspending solution); 49 % of control (dose: 801.0 mg/kg/injection, schedule: Q01DX007 (sc), vehicle: steriod suspending solution); 61 % of control (dose: 1202.0 mg/kg/injection, schedule: Q01DX007 (sc), vehicle: steriod suspending solution).

`CC1CN1P(=O)(Oc1ccccc1)N1CC1C` (centres undefined): the T/C is 60 % of control and 67 % of control and 84 % of control (dose: 27.5 mg/kg/injection, schedule: Q#A X014 (ip), vehicle: saline); 13 % of control and 20 % of control (dose: 62.5 mg/kg/injection, schedule: Q#A X014 (ip), vehicle: saline).
